Measured values taken from PubChem BioAssay AID651927 (Vanderbilt Specialized Chemistry Center, 2012).

Target: Muscarinic acetylcholine receptor M5 (Homo sapiens) (UniProt P08912)
Assay: ACh response potentiation at M5 – CHO cells, human M5 (AID 651927)
Conditions: CHO-K1 hM5, Fluo-4 calcium flux, ACh EC20 potentiation

Sequence of Muscarinic acetylcholine receptor M5 (Homo sapiens) (P08912 whole entry, looked up): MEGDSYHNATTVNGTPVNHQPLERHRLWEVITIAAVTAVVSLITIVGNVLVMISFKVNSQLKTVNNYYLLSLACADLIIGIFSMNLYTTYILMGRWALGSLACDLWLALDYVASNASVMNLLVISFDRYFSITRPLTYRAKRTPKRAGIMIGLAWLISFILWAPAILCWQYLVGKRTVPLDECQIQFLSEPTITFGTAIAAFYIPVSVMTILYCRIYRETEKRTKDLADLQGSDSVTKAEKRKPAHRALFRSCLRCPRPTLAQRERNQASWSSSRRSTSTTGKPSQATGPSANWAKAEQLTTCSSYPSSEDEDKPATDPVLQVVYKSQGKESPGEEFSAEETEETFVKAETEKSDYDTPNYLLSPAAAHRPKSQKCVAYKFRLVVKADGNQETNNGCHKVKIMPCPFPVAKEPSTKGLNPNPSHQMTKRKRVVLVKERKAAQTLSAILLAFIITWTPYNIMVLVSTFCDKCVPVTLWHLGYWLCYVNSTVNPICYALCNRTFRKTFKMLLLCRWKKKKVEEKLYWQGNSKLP

O=C1C(=O)N(CCOc2ccccc2)c2ccc(OC(F)(F)F)cc21
EC50: 0.589 µM
